# Patent US6121055A, “Methods and devices for conducting specific binding assays” (priority 1995, dated 2000)
# Counter-ions that a name gives are not always drawn.
# Tests used:
# [1] = system: antisera to synthetic hTGF-a (1-50); assay: RIA for human TGF-a using antisera recognizing the complete, bioactive synthetic hormone; type: binding, rabbit
# Method: (D) RIA for Human TGF-a Using Antisera Recognizing the Complete, Bioactive Synthetic Hormone Synthesis of hTGF-a (1-50) Peptide and Immunization:
# The sequence of human TGF-a as determined by DeRynck et al. (Cell 38:287-297, 1985) was used to synthesize the low molecular weight form of the hormone (residues 1-50) using an automated instrument (Biosearch). The resultant peptide was used to immunize rabbits repeatedly using 0.5 mg of peptide at multiple sites.
# The assay used reference standards and radio-iodinated tracer prepared from purified, bioactive synthetic rat TGF-alpha (Peninsula Laboratories, Belmont, Calif.). Label cocktail was prepared by mixing, in 1.5 L total volume, 300 L 10×buffer (0.5 M Hepes, 2 mg/L BSA, 0.2% sodium azide), 600 L 10% nonidet P-40 (Shell Oil Co.), 580 L distilled water, and 30 L of labeled peptide (rTGF-a, 800,000 CPM). The antibody suspension was prepared essentially as described in (A) above. To each 0.4 L tube containg 0.25-0.3 L cushions of butyl phthalate was added 25 L of label cocktail, 50 L of sample, and 25 L of antibody suspension. Where indicated, 10 L of 1M DTT (freshly dissolved in 0.5M sodium bicarbonate) was added to each assay mixture. After mixing, the tubes were incubated overnight at 4° C., then processed as described in (A) except that the detection instrument was a gamma counter (Abbott Model 200).
# [2] = cited from earlier work; for SOLUBILITY (in words): Table 1, water; for SOLUBILITY (parts H2O): Table 1, numeric; for SOL. IN PARTS H2O: Table 2
# anti-digoxin antibody = assay: Enzyme immunoassay for digoxin; type: binding, rabbit
# From the text: An enzyme-labelled digoxin assay using the method of the present invention is adapted from a commercial digoxin kit (Immunotech, Allston, Mass.). The only changes in reagents are the inclusion of 20% sorbitol in the color developer solution, and the substitution of 50 microliters of Tachisorb-R (Behring Diagnostics, La Jolla, Calif.) for the 500 microliters of precipitating solution (goat-anti rabbit IgG) provided with the kit.
# In two mL, screw-top microcentrifuge tubes (Sarstedt, Princeton, N.J.), 1 mL of sorbitol-color developer is dispensed, then overlaid with 0.4 mL of dibutyl phthalate. A 200 microliter assay mixture is prepared by adding 100 microliters of Tachisorb-R, 25 microliters of digoxin-enzyme (alkaline phosphatase) conjugate, 25 microliters of sample (serum-based standards), and 50 microliters of antibody solution. The assay is incubated at room temperature for 15 minutes, centrifuged two minutes at 10,000×g, and further incubated one hour for color development.
# Color is measured at 400 nm in a Shimadzu Model UV-160 spectrophotometer. Because of the opacity of the polypropylene tubes, results for each tube are corrected for nonspecific absorbance at 500 nm.
# [3] = system: anti-fragment antisera (rat TGF-a c-terminal peptide); assay: TGF-a RIA: bioactive peptides & methyl cinnamate cushions; type: binding, rabbit
# Method: (§1) All assays employed as assay vessels 0.4 L microcentrifuge tubes containing 0.25-0.3 L of cushion material. Labeled peptide was produced by chloramine Tiodination (specific activity ranged from 200-500 Ci/g). Unless otherwise specified, all solid phases were prepared using S. aureus suspensions. Centrifugations were for 30-60 seconds in a microcentrifuge at approximately 10,000×g.
# (§2) (B) RIA Using Anti-Fragment Antisera and Bioactive Syntheticpeptide as Tracer and Reference Standard, with Methylcinnamate Cushions and Assay Reactants Predispensed.
# (§3) Trans-methyl cinnamate (Table 1, item 11, Aldrich Chemical Co., St. Louis, Mo.) was melted by brief heating in a microwave oven just prior to dispensing into assay vessels. The cushion solidified spontaneously at room temperature. The solid phase was prepared as in (A) above in double strength assay buffer (including 4% NP-40 nonionic detergent). This suspension was stable at 4° C. for at least one year. Label cocktail (1.5 L) was prepared using 0.3 L 10×assay buffer (minus nonionic detergent), 0.6 L 10% NP-40, 0.58 L distilled water, and 30 L label concentrate (600,000 CPM) prepared from bioactive synthetic rat TGF-alpha (res. 1-50).
# (§4) Into each assay was loaded 50 L of reference standard sample (bioactive, synthetic rat TGF-alpha, res. 1-50), 25 L of label cocktail, followed by 25 L of solid phase suspension. Where indicated, all assay reactants were predispensed and equilibrated for at least 3 days at 4 C prior to initiation of the assay by sample addition and mixing. After the indicated incubation periods, assay vessels were centrifuged and counted using radiation shields (FIG. 3, lacking disk 52) in an gamma counter (Abbott Model 200).
# Two temperature and mixing treatments were compared with four incubation times. One treatment consisted of incubating at 32° C., just below the melting temperature of the cushion, and mixing at 15 minute intervals. The second treatment consisted of incubating at 40° C., above the melting temperature of the cushion, with mixing only at initiation of incubation (prior to warming). Both assays yielded low nonspecific binding, high specific binding, and high competition with reference standards, even after only 30 minutes of incubation.
# [4] = system: anti-fragment antisera (rat TGF-a c-terminal peptide); assay: TGF-a RIA: predispensed reactants & methyl cinnamate cushions; type: binding, rabbit
# Method: as §1, §2, §3, §4
# [5] = REDUCED WITH DTT, 1.25 nM in assay
compound,measurement,setting,value
"BIOLOGICAL TGFALPHA: BIOLOGICAL TGFALPHA, PARTIALLY PURIFIED FROM CULTURE FLUIDS (A375 CELLS)","PERCENTAGE OF MAXIMAL BINDING, corrected for nonspecific binding",[1]; [5],63.3%
same,"PERCENTAGE OF MAXIMAL BINDING, corrected for nonspecific binding","[1]; UNREDUCED, 1.25 nM in assay",89.7%
CCOC(=O)[C@H](O)[C@@H](O)C(=O)OCC [DIETHYL L-TARTRATE],SOLUBILITY (in words),[2],slightly
COC(=O)C(=O)OC [DIMETHYL OXALATE],SOLUBILITY (parts H2O),[2],17 parts H2O
CCCCOC(=O)CC(O)(CC(=O)OCCCC)C(=O)OCCCC [BUTYL CITRATE],SOLUBILITY (in words),[2],INSOL
CCOC(=O)c1ccccc1O [ETHYL SALICYLATE],SOLUBILITY (in words),[2],SLIGHTLY
CCOC(=O)/C=C\C(=O)OCC [DIETHYL MALEATE],SOLUBILITY (in words),[2],INSOL
C[C@H]1O[C@@H](O[C@H]2[C@@H](O)C[C@H](O[C@H]3[C@@H](O)C[C@H](O[C@H]4CC[C@@]5(C)[C@H](CC[C@@H]6[C@@H]5C[C@@H](O)[C@]5(C)[C@@H](C7=CC(=O)OC7)CC[C@]65O)C4)O[C@@H]3C)O[C@@H]2C)C[C@H](O)[C@@H]1O [digoxin],ABSORBANCE AT 400 nm (corrected),anti-digoxin antibody; sample 1.0,150
same,ABSORBANCE AT 400 nm (corrected),anti-digoxin antibody; sample 2.0,100
same,ABSORBANCE AT 400 nm (corrected),anti-digoxin antibody; sample 4.0,80
CCOC(=O)CC(=O)C(=O)OCC [ETHYL OXALACETATE],SOLUBILITY (in words),[2],INSOL
COC(=O)c1ccccc1 [METHYL BENZOATE],SOLUBILITY (in words),[2],INSOL
CCOC(=O)CC(=O)OCC [DIETHYL MALONATE],SOLUBILITY (parts H2O),[2],50 parts H2O
COC(=O)c1ccccc1C(=O)OC [DIMETHYL PHTHALATE],SOLUBILITY (parts H2O),[2],232 parts H2O
COC(=O)/C=C/c1ccccc1 [METHYL CINNAMATE],SOLUBILITY (in words),[2],ALMOST INSOL
CCCCOC(=O)C=Cc1ccccc1 [BUTYL CINNAMATE],SOLUBILITY (parts H2O),[2],200 parts H2O
CC(O)CO (stereo not drawn) [PROPYLENE GLYCOL],miscibility,[2]; Table 2 comment,"MISC WITH H2O, CHCL3"
COC(=O)CCC(=O)OC [DIMETHYL SUCCINATE],SOLUBILITY (parts H2O),[2],120 parts H2O
COC(=O)c1ccco1 [METHYL FUROATE],SOLUBILITY (in words),[2],SLIGHTLY
[Br-].[Li+] [LITHIUM BROMIDE],SOL. IN PARTS H2O,[2],.6 PARTS H2O
CCOC(=O)CC(C)=O [ETHYL ACETOACETATE],SOLUBILITY (parts H2O),[2],35 parts H2O
CCOC(=O)CC(=O)c1ccccc1 [ETHYL BENZOYLACETATE],SOLUBILITY (in words),[2],INSOL
"RTGF, BIOACTIVE: purified, bioactive synthetic rat TGF-alpha (Peninsula Laboratories)","PERCENTAGE OF MAXIMAL BINDING, corrected for nonspecific binding","[1]; REDUCED WITH DTT, 0.15 nM in assay",93.8%
same,"PERCENTAGE OF MAXIMAL BINDING, corrected for nonspecific binding","[1]; REDUCED WITH DTT, 0.32 nM in assay",87.1%
same,"PERCENTAGE OF MAXIMAL BINDING, corrected for nonspecific binding","[1]; REDUCED WITH DTT, 0.62 nM in assay",79.9%
same,"PERCENTAGE OF MAXIMAL BINDING, corrected for nonspecific binding",[1]; [5],74.4%
same,"PERCENTAGE OF MAXIMAL BINDING, corrected for nonspecific binding","[1]; REDUCED WITH DTT, 2.50 nM in assay",64.9%
same,"PERCENTAGE OF MAXIMAL BINDING, corrected for nonspecific binding","[1]; REDUCED WITH DTT, 5.00 nM in assay",47.3%
same,"PERCENTAGE OF MAXIMAL BINDING, corrected for nonspecific binding","[1]; UNREDUCED, 0.15 nM in assay",83.2%
same,"PERCENTAGE OF MAXIMAL BINDING, corrected for nonspecific binding","[1]; UNREDUCED, 0.32 nM in assay",77.3%
same,"PERCENTAGE OF MAXIMAL BINDING, corrected for nonspecific binding","[1]; UNREDUCED, 0.62 nM in assay",68.5%
same,"PERCENTAGE OF MAXIMAL BINDING, corrected for nonspecific binding","[1]; UNREDUCED, 1.25 nM in assay",58.5%
same,"PERCENTAGE OF MAXIMAL BINDING, corrected for nonspecific binding","[1]; UNREDUCED, 2.50 nM in assay",54.0%
same,"PERCENTAGE OF MAXIMAL BINDING, corrected for nonspecific binding","[1]; UNREDUCED, 5.00 nM in assay",45.7%
CCCCOC(=O)c1ccccc1C(=O)OCCCC [DIBUTYL PHTHALATE],SOLUBILITY (parts H2O),[2],2500 parts H2O
[Cl-].[Li+] [LITHIUM CHLORIDE],SOL. IN PARTS H2O,[2],1.3 PARTS H2O
COC(=O)c1ccccc1O [METHYL SALICYLATE],SOLUBILITY (parts H2O),[2],1500 parts H2O
CCOC(=O)C=Cc1ccccc1 [ETHYL CINNAMATE],SOLUBILITY (in words),[2],INSOL
"synthetic rat TGF-alpha: bioactive, synthetic rat TGF-alpha, res. 1-50",% bound with 0.3 nM sample,"[3]; 30 minutes, 32 C",21.9%
same,% bound with 10 nM sample,"[3]; 30 minutes, 32 C",5.6%
same,% bound with 0.3 nM sample,"[3]; 30 minutes, 40 C",23.8%
same,% bound with 10 nM sample,"[3]; 30 minutes, 40 C",6.9%
same,% bound with 0.3 nM sample,"[3]; 60 minutes, 32 C",25.2%
same,% bound with 10 nM sample,"[3]; 60 minutes, 32 C",6.2%
same,% bound with 0.3 nM sample,"[3]; 60 minutes, 40 C",29.4%
same,% bound with 10 nM sample,"[3]; 60 minutes, 40 C",7.1%
same,% bound with 0.3 nM sample,"[3]; 90 minutes, 32 C",26.2%
same,% bound with 10 nM sample,"[3]; 90 minutes, 32 C",6.4%
same,% bound with 0.3 nM sample,"[3]; 90 minutes, 40 C",32.9%
same,% bound with 10 nM sample,"[3]; 90 minutes, 40 C",7.6%
same,% bound with 0.3 nM sample,"[3]; 120 minutes, 32 C",25.6%
same,% bound with 10 nM sample,"[3]; 120 minutes, 32 C",6.1%
same,% bound with 0.3 nM sample,"[3]; 120 minutes, 40 C",35.8%
same,% bound with 10 nM sample,"[3]; 120 minutes, 40 C",7.6%
same,"label bound, CPM","[4]; 2.5 nM sample competition, total CPM = 7872",642 CPM
same,% OF MAX. BOUND,"[4]; 2.5 nM sample, 120 minutes, 37 C",48.6%
same,LABEL BOUND,"[4]; 2.5 nM sample, 120 minutes, 37 C, N = 6",8.2%
